The values that follow are results of earlier work, collected in US9718036B2, “Method of preparing carrier liquids” (The University of Liverpool, priority 2011, dated 2017).

For the series the following is noted: at 20° C.

Values after ≈ are worked out from the molar mass of the structure shown.

For `CC1(C)C(/C=C(\Cl)C(F)(F)F)C1C(=O)OC(C#N)c1cccc(Oc2ccccc2)c1` (stereo not shown) [λ-cyhalothrin], the solubility in water is 5 µg/mL (≈ 11.1 µM).
